Activity calls are given as the source filed them.
Legend:
[1] = target: C-C chemokine receptor type 6 (Homo sapiens, UniProt P51684); test: antagonism of CCR6 beta-arrestin recruitment – cell-based, luminescent beta-arrestin readout, dose response (AID 504728); assay type: functional
[2] = target: Beta-galactosidase (Escherichia coli, UniProt Q8VNN2); test: detection-enzyme interference by beta-gal modulators – biochemical, E. coli enzyme, set 3, artefact control for CCR6 antagonist project, dose response (AID 504712); assay type: functional
Beta-galactosidase, sequence (Q8VNN2 whole entry): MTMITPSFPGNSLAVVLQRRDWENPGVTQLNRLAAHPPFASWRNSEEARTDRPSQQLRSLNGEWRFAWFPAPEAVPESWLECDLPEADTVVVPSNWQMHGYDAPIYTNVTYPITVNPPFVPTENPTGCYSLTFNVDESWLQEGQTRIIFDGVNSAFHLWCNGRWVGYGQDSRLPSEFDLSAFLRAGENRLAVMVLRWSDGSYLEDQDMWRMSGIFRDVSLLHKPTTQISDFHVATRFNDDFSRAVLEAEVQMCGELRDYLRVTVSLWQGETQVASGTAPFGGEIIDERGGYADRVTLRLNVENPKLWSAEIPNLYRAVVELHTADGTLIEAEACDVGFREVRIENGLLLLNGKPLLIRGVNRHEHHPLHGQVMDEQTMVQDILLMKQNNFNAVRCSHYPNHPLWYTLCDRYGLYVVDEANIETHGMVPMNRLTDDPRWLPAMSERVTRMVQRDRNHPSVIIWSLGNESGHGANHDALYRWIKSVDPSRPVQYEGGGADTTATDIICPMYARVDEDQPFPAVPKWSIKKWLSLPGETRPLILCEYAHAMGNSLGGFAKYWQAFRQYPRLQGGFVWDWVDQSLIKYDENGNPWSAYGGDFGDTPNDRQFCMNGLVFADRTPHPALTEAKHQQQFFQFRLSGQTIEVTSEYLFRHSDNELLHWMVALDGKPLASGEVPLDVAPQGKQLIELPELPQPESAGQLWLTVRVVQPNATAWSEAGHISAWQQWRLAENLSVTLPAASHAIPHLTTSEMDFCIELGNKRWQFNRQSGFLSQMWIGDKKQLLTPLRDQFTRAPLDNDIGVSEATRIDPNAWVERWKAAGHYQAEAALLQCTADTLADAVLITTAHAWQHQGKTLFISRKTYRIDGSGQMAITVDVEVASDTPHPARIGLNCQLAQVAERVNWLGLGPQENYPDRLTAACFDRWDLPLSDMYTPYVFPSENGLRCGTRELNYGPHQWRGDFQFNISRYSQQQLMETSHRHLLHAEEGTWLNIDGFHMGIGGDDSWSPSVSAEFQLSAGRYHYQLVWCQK

[3] = protection from phage-mediated lysis, alamar blue read-out – E. coli UTI89, K1F phage, bacterial capsule biogenesis inhibitors (AID 488966); assay type: functional
[4] = target: T1, Replicative DNA helicase DnaB (Mycobacterium tuberculosis, UniProt P9WMR3); test: DnaB intein splicing inhibitors, dose response, biochemical, cell-free fluorescence (AID 449749); assay type: functional
T1 sequence (P9WMR3 whole entry): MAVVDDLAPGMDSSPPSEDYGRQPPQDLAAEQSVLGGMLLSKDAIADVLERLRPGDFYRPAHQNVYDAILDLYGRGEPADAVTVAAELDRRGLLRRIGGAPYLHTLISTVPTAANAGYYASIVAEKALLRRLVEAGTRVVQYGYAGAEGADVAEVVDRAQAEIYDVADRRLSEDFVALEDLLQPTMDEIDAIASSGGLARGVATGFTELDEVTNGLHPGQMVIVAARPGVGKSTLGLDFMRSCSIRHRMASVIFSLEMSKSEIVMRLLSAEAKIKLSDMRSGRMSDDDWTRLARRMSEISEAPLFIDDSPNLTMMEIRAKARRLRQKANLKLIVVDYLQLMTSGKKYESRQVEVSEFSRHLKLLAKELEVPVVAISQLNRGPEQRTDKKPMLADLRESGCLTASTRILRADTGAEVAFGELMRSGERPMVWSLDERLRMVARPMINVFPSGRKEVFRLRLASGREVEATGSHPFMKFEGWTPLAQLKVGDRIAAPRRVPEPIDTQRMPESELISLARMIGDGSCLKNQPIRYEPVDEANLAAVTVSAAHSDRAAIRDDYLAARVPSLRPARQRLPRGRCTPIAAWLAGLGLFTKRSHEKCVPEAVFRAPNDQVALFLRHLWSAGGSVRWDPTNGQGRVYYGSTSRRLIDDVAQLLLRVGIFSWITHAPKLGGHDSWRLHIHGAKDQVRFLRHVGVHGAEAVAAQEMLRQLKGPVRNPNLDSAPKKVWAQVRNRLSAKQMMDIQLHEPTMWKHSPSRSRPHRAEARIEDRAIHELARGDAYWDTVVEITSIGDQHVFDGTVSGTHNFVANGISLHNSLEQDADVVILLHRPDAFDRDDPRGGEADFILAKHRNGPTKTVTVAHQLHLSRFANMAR

[5] = target: T2, Protein RecA (Mycobacterium tuberculosis, UniProt P9WHJ3); test: Fluorescence Cell-Free Homogeneous Dose Retest to Identify Inhibitors of RecA-Intein Splicing Activity. [Related pubchem assays (depositor defined):AID2097, AID2223, AID489010, AID492950]; assay type: functional
T2 sequence (P9WHJ3 whole entry): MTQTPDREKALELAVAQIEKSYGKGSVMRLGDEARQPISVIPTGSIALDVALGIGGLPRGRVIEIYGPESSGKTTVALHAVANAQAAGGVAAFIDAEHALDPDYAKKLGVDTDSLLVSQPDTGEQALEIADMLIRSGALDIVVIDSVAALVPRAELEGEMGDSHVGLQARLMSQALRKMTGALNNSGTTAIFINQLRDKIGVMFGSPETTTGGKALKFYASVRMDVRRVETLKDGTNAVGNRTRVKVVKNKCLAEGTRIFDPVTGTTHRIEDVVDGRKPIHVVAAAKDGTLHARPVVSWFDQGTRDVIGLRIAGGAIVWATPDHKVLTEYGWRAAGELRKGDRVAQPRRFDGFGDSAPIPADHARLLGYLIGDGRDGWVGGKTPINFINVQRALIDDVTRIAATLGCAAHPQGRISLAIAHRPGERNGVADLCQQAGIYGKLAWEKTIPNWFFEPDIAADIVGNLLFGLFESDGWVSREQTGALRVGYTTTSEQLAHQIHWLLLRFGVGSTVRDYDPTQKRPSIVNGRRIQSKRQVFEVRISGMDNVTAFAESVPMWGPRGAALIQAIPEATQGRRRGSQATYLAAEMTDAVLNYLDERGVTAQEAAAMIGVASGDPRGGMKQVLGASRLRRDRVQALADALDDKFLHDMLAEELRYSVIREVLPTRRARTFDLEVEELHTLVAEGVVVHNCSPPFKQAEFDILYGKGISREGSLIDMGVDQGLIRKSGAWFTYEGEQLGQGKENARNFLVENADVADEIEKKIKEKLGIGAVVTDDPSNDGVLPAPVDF

[6] = target: Genome polyprotein (dengue virus type 2, UniProt P29990); test: flavivirus cap methylation enzyme inhibition – biochemical, confirmation dose response, primary screen (AID 588689); assay type: functional
[7] = target: T3, Voltage-gated N-type calcium channel alpha-1B subunit/Amyloid beta A4 precursor protein-binding family A member 1 (Homo sapiens, UniProt Q00975+Q02410); test: disruptors of Mint-PDZ/N-type channel peptide interaction – biochemical, HTRF, set 2, SAR follow-up (AID 434980); assay type: functional
T3 sequence (Q00975 whole entry): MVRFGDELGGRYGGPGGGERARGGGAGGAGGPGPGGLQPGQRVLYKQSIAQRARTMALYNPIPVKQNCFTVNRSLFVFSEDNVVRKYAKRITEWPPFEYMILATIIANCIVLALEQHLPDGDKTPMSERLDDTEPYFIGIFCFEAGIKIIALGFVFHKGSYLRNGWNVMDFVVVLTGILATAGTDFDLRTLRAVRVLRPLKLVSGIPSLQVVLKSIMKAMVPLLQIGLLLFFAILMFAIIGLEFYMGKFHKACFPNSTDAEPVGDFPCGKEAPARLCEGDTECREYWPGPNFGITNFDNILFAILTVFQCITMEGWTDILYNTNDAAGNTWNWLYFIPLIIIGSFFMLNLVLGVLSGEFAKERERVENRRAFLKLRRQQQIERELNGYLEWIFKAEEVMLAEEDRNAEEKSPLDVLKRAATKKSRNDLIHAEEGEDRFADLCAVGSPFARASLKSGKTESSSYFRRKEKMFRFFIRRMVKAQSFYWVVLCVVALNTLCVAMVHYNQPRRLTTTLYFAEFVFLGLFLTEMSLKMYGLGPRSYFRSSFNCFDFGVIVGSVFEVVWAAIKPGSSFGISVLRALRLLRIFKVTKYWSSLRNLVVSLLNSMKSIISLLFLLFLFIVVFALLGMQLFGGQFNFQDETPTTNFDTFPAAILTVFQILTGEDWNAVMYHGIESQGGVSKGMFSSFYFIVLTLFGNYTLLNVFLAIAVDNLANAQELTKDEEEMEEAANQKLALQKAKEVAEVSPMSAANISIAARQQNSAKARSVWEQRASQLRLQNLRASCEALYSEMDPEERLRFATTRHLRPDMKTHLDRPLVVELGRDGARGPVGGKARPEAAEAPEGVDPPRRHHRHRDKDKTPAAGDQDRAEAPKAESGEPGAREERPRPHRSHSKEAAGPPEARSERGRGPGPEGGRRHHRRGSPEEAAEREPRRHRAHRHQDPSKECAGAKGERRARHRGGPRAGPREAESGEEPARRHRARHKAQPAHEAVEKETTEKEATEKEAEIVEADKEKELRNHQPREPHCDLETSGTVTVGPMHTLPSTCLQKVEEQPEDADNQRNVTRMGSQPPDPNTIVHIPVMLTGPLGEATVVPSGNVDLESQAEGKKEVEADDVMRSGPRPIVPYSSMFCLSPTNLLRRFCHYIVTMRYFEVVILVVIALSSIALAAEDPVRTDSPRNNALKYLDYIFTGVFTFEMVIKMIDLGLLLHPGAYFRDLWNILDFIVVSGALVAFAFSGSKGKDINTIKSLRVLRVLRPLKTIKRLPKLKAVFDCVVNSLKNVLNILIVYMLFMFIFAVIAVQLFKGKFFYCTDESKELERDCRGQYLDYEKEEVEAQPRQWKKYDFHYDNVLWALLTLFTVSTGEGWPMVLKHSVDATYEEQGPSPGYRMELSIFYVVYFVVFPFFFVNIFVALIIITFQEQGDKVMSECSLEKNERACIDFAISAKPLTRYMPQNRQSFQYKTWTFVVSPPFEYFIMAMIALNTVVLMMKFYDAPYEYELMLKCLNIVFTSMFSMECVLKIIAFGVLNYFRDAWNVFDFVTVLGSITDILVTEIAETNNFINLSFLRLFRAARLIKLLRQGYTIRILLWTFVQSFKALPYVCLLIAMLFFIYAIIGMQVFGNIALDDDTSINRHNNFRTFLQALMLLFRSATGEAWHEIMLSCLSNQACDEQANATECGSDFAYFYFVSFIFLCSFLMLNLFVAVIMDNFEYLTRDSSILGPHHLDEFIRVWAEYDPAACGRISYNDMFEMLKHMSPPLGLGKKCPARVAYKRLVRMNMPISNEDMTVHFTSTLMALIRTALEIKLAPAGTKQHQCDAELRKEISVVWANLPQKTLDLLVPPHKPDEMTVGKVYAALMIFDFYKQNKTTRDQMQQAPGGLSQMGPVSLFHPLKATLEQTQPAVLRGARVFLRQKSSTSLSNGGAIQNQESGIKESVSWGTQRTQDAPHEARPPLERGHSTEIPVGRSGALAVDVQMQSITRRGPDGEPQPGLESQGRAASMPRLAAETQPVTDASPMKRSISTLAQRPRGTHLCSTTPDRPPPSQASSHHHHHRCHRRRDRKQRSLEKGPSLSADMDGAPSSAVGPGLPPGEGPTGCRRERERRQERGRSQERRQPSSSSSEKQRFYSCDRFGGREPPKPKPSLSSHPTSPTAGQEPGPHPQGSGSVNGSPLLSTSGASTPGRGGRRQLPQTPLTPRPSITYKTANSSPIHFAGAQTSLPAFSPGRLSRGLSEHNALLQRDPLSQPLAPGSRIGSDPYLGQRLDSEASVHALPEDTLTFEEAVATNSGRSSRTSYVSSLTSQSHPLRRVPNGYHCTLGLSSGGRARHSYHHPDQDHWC
T3 sequence (Q02410 whole entry): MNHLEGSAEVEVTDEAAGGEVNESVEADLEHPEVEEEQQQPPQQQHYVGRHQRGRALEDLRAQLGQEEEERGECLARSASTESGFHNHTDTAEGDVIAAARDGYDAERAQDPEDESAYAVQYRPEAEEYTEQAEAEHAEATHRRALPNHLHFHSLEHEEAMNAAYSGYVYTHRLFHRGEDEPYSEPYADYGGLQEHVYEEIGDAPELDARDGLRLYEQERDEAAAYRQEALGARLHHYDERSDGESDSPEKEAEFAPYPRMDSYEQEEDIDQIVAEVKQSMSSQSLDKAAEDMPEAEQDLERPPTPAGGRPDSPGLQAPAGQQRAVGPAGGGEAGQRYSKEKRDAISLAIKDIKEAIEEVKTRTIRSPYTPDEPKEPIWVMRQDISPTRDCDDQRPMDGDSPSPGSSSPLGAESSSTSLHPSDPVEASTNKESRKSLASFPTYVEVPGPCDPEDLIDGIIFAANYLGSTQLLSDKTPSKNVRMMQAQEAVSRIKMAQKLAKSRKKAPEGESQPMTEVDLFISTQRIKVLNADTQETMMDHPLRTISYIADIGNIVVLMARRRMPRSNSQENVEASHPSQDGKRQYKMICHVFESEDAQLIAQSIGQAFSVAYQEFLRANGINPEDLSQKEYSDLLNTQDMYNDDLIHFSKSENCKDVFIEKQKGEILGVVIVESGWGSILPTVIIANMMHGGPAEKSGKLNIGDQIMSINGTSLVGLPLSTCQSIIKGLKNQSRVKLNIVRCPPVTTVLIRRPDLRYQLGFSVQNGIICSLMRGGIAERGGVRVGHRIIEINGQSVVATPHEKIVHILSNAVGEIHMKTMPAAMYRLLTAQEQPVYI

[8] = target: T3, Voltage-gated N-type calcium channel alpha-1B subunit/Amyloid beta A4 precursor protein-binding family A member 1; test: disruptors of Mint-PDZ/N-type channel peptide interaction – biochemical, HTRF, SAR follow-up (AID 2489); assay type: functional
[9] = target: Protein Rev (Human immunodeficiency virus type 1 group M subtype B (isolate HXB2)(HIV-1), UniProt P04618); test: blockers of HIV Rev/RRE RNA complex – biochemical, fluorescence polarization, HIV-1, dose response (AID 434976); design: species or system Human immunodeficiency virus 1
Protein Rev, sequence (P04618 whole entry): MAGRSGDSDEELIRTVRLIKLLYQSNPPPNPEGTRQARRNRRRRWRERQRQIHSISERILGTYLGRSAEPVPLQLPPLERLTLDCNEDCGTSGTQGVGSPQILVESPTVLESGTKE

[10] = target: Female germline-specific tumor suppressor gld-1 (Caenorhabditis elegans, UniProt Q17339); test: blockers of GLD-1/TGE RNA complex formation – biochemical, fluorescence polarization, C. elegans, dose response (AID 2802);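 note: fluorescence polarization of labeled TGE RNA bound by purified gld-1 protein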
[11] = target: Cytochrome P450 2C19 (Homo sapiens, UniProt P33261); test: Cytochrome panel assay with activity outcomes. Panel member name: p450-cyp2c19 Compounds with AC50 equal or less than 10 uM are considered active; assay type: functional
[12] = target: T4, Polyadenylate-binding protein 1 (Homo sapiens, UniProt P11940); test: MLLE binding blockers, Cy5 peptide tracer – biochemical, fluorescence polarization, Cy5-PAM2 peptide, secondary, miRNA deadenylation inhibitor project, dose response (AID 602260); assay type: functional; details: read-out: IC50_Mean
T4 sequence (P11940 whole entry, the tested form may be a part): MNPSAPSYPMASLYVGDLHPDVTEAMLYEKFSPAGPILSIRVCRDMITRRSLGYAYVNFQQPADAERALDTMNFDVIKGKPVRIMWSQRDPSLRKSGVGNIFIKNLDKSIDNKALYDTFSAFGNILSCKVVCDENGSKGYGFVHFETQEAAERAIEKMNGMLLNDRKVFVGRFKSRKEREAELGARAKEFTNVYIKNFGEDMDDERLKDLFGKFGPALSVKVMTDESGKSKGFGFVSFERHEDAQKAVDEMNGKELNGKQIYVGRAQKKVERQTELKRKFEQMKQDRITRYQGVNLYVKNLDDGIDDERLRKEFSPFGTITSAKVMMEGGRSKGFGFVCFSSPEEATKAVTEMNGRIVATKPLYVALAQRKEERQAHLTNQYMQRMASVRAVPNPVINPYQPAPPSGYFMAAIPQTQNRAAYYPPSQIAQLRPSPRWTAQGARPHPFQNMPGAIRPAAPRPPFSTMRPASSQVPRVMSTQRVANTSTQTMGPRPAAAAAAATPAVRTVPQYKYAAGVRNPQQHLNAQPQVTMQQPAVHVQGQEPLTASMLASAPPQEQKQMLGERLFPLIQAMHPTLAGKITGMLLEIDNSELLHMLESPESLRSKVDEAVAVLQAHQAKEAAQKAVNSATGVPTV

[13] = target: T4, Polyadenylate-binding protein 1; test: MLLE domain peptide-binding blockers, IC50 – biochemical, fluorescence polarization, FITC-PAM2 peptide, dose response (AID 602259); assay type: functional; details: read-out: IC50_Mean

With `O=C(Nc1nnc(C2CC2)s1)c1cc([N+](=O)[O-])ccc1N1CCCCC1` the IC50 [1] was > 66.6 µM (inactive) and the IC50 [2] was > 66.6 µM (inactive).

With `N=C1/C(=C\c2ccc(OC(=O)c3ccc(F)cc3)cc2)C(=O)N=C2SC(N3CCOCC3)=NN12` the IC50 [3] was > 75 µM (active), the AC50 [4] was 22.4 µM (active) and the EC50 [5] was 17.1 µM (active). For the same molecule, the IC50 [6] was 19.2 µM (active).

In the case of `O=C(c1cc(-c2ccco2)nc2ccccc12)N1CCN(c2ccccc2)CC1`, the IC50 [7] is reported as > 56.8 µM (inactive) and the IC50 [8] is reported as > 56.8 µM (inactive).

With `O=c1nc2[nH]c3ccccc3nc-2c(=O)[nH]1` [ALLOXAZINE] the IC50 [9] was 12.4 µM (not active), the IC50 [10] was 1.47 µM (active) and the AC50 [11] was “inconclusive”. The IC50 [12] was > 66 µM (inactive) and the IC50 [13] was 35.8 µM (inactive).
